Test results reported in patent publication US10468722B2, “Organic synthesis applications of non-aqueous fluoride salt solutions” (CALIFORNIA INSTITUTE OF TECHNOLOGY, priority 2015, dated 2019).

Legend:
[1] = NpMe3NF stability in various solvents by 1H and 19F NMR; format: physicochemical
Experimental: NpMe3NF stability in various solvents is analyzed by ^1H and ^19F NMR measurements. Preliminary criteria used for a solvent being “chemically stable” to the F^− ion are observation of a clear, sharp peak in the ^19F spectrum, alongside a 1:1:1 triplet arising from the DF2^− formation from the deuterated acetonitrile solvent (CD3CN).

physchem = settings: for Solubility in fluorinated solvents (in words): 3-fluorobenzonitrile and BTFE, useful concentrations e.g. >0.05 M; for Solubility vs. TMAF: in 3-fluorobenzonitrile, relative to TMAF; for solubility: organic solvent or mixture
Experimental: NpMe3NF is determined to be soluble in a given solvent if the concentration of NpMe3NF dissolved within the solvent is greater than 0.05 M.

[2] = in 2,6-difluoropyridine (2,6-F2Py)
[3] = in 3-methoxypropionitrile (3-MeOPN)

For `CC(C)(C)C[N+](C)(C)C.[F-]` [NpMe3NF, (2,2-dimethylpropyl)trimethylammonium fluoride], the “Stability (1H and 19F NMR)” value [1, 2] was “good stability”, the “Stability (1H and 19F NMR)” value [1, 3] was “poor stability” and the “Stability (1H and 19F NMR)” value ([1]; in BTFE) was “good stability”. For the same compound, the “Stability (1H and 19F NMR)” value ([1]; in Bis(2,2,2-trifluoroethyl) carbonate (BTFEC)) was “poor stability”, the “Stability (1H and 19F NMR)” value ([1]; in propionitrile (PN)) was “good stability” and the “Solubility in fluorinated solvents (in words)” value (physchem) was “significantly higher solubility”. For the same compound, the “Approximate Solubility” value (physchem; in 1,3-Dimethyl-3,4,5,6-tetrahydro-2(1H)-pyrimidinone (DMPU)) was 110 mM, the “Approximate Solubility” value (physchem; in 2,2,2-trifluoroethyl trifluoroacetate (TFE-TFA)) was 950 mM and the “Approximate Solubility” value (physchem; in 2,3-difluorobenzonitrile (2,3-F2BN)) was 400 mM. For the same compound, the “Approximate Solubility” value (physchem; [2]) was 390 mM, the “Approximate Solubility” value (physchem; in 2-fluorobenzonitrile (2-FBN)) was 120 mM and the “Approximate Solubility” value (physchem; in 3-fluorobenzonitrile (3-FBN)) was 190 mM. The “Solubility vs. TMAF” value (physchem) was >6x, the “Approximate Solubility” value (physchem; [3]) was 780 mM and the “Approximate Solubility” value (physchem; in (Dimethylamino)acetonitrile (DMAN)) was 140 mM. For the same compound, the “Approximate Solubility” value (physchem; in Fluoroethylene carbonate (FEC)) was 710 mM, the “Approximate Solubility” value (physchem; in Tris(2,2,2-trifluoroethyl)phosphite (TTFP)) was 1050 mM and the “Approximate Solubility” value (physchem; in methoxyacetonitrile (MeOAN)) was 800 mM. The “Approximate Solubility” value (physchem; in phenyl trifluoroacetate (PhTFA)) was 470 mM, the “Approximate Solubility” value (physchem; in propionitrile (PN)) was 70 mM and the solubility (physchem) was 190 mM.

With `CC(C)(C)C[N+](C)(C)CC(C)(C)C.[F-]` [Np2Me2NF, bis(2,2-dimethylpropyl)dimethylammonium fluoride] the “Solubility in fluorinated solvents (in words)” value (physchem) was “significantly higher solubility”, the “Solubility vs. TMAF” value (physchem) was >10x and the solubility (physchem) was 340 mM.
